Assay results as given in patent publication US10745405B2, “Glucuronide prodrugs of Janus kinase inhibitors” (THERAVANCE BIOPHARMA R&D IP, LLC, priority 2017, dated 2020).

Experiments:
[1] = Oral pharmacokinetics in mouse assay; assay type: in vivo; details: liberated JAK inhibitor in colon tissue, AUC0-6 h, single PO dose 5 mg/kg of prodrug, male Balb/c mice
Procedure: When cleaved by β-glucuronidase enzyme, the compounds of the present invention release a JAK inhibitor (e.g., ruxolitinib, baricitinib or oclacitinib). The object of this assay was to determine JAK inhibitor exposure (AUC0-6 h) in colon tissue and plasma following oral dosing of compounds of the present invention in mice. Male Balb/c mice (n=2/time point) received a single PO oral gavage dose (5 mg/kg in 1:20 mixture of 5% DMSO and 1% HPMC) of the test compound. At 0.5, 2, 6 and 24 h post-dosing, mice were sacrificed via cardiac puncture exsanguination and blood samples were taken and placed into sample tubes (Microtainer, Becton, Dickinson and Company) containing sodium fluoride and then placed on ice. Plasma was obtained by centrifugation (Eppendorf centrifuge, 5804R) for 4 min at approximately 12,000 rpm at 4° C. The colons were removed from the exsanguinated mice and the colon fecal contents were gently removed. The colons were flushed with saline and patted dry. The colons were then homogenized in 3× volume of sterile water using a tissue homogenizer (Precellys homogenizer, Bertin Instruments) at approximately 4° C. All samples were stored at −80° C. for later bioanalysis. The concentration of JAK inhibitor (e.g., ruxolitinib, baricitinib or oclacitinib) in each sample was determined as follows: the plasma and colon homogenate samples were vortexed, combined with a 50 μL aliquot of rat plasma, extracted with 200 μL of ACN containing an internal standard and quantified against the internal standard by LC-MS. An area-under-the-concentration curve (AUC0-6 h) was calculated for plasma and colon test compound and liberated JAK inhibitor. A key parameter to assess suitability for localized delivery of the JAK inhibitor to the colon was the JAK inhibitor colon to plasma AUC ratio.

[2] = system: β-glucuronidase in rat colon feces; experiment: Rat colon fecal homogenate stability assay; assay type: in vitro ADME; details: male, Sprague Dawley, rat colon fecal supernatant-homogenate; in vitro half-life of the prodrug in rat fecal supernatant-homogenate, anaerobic, 10 μM substrate; read-out: T½
From the text: The compounds of the present invention contain a glucuronide prodrug moiety that is expected to be cleaved by β-glucuronidase enzyme to release a JAK inhibitor (e.g., ruxolitinib, baricitinib or oclacitinib). The objective of this assay was to determine the half-life for compounds of the present invention in the presence of β-glucuronidase in rat colon feces. Following sacrifice of a naïve male Sprague Dawley rat (˜300 g) by cardiac puncture exsanguination, the colon was ligated and removed to an anaerobic chamber (AS-580, Anaerobe Systems). The fecal content was removed within the chamber and was diluted 1:10 with phosphate buffer (1 gram fecal content to 9 mL phosphate buffer) and the resulting mixture was homogenized using a handheld Omni Tissue Master. The fecal homogenate was centrifuged at 2000 g for 10 min to remove bulk material and the supernatant was removed and used for the incubations. DMSO stock solutions (10 mM) of the test compounds and sulfasalazine (control) were prepared. Sulfasalazine was used as a positive control to confirm viability of the fecal supernatant-homogenate (see, e.g., Azad Khan et al., Clinical Science (1983) 64, 349-354). If the in vitro half-life (T½) for sulfasalazine in the fecal sample was less than 30 min, the fecal sample was deemed to be viable and in true anaerobic conditions. However, if the T½ for sulfasalazine was greater than 30 min, the fecal sample was typically contaminated with oxygen and was not viable. The final substrate concentration of each assay was 10 μM. Reactions were started by adding a 5 μL aliquot of diluted test compound stock solution into 300 μL of rat fecal supernatant-homogenate. At 0, 15, 50, 85 and 120 min post reaction initiation, a 50 μL aliquot was removed and added to a mixture of 200 μL of acetonitrile with 3% formic acid and an internal standard. All samples were centrifuged at 2000 g for 10 min after which 50 μL of supernatant was diluted into 150 μL of water for analysis on an LC-MS system. In vitro half-lives (T½) for the test compounds were calculated as follows: T½=0.693/elimination rate constant.

Colon AUC [1] [µg·h/g] | half-life at 10 μM [2] [min] | SMILES
7.4 | < 5 | CN(CCN(C)C(=O)n1ccc2c(-c3cnn([C@H](CC#N)C4CCCC4)c3)ncnc21)C(=O)OCc1ccc(O[C@@H]2O[C@H](C(=O)O)[C@@H](O)[C@H](O)[C@H]2O)c([N+](=O)[O-])c1 [Compound VII-1, (2S,3S,4S,5R,6S)-6-(4-((((2-(4-(1-((R)-2-Cyano-1-cyclopentylethyl)-1H-pyrazol-4-yl)-N-methyl-7H-pyrrolo[2,3-d]pyrimidine-7-carboxamido)ethyl)-(methyl)carbamoyl)oxy)methyl)-2-nitrophenoxy)-3,4,5-trihydroxytetrahydro-2H-pyran-2-carboxylic Acid]
17.3 | < 5 | CCS(=O)(=O)N1CC(CC#N)(n2cc(-c3ncnc4c3ccn4C(=O)N(C)CCN(C)C(=O)OCc3ccc(O[C@@H]4O[C@H](C(=O)O)[C@@H](O)[C@H](O)[C@H]4O)c([N+](=O)[O-])c3)cn2)C1 [Compound VII-2, (2S,3S,4S,5R,6S)-6-(4-((((2-(4-(1-(3-(Cyanomethyl)-1-(ethylsulfonyl)azetidin-3-yl)-1H-pyrazol-4-yl)-N-methyl-7H-pyrrolo[2,3-d]pyrimidine-7-carboxamido)ethyl)-(methyl)carbamoyl)oxy)methyl)-2-nitrophenoxy)-3,4,5-trihydroxytetrahydro-2H-pyran-2-carboxylic Acid]
13.5 | < 5 | CNS(=O)(=O)C[C@H]1CC[C@H](N(C)c2ncnc3c2ccn3C(=O)N(C)CCN(C)C(=O)OCc2ccc(O[C@@H]3O[C@H](C(=O)O)[C@@H](O)[C@H](O)[C@H]3O)c([N+](=O)[O-])c2)CC1 [Compound VII-3, (2S,3S,4S,5R,6S)-3,4,5-Trihydroxy-6-(4-(((methyl(2-(N-methyl-4-(methyl((1r,4r)-4-((N-methylsulfamoyl)methyl)cyclohexyl)amino)-7H-pyrrolo[2,3-d]pyrimidine-7-carboxamido)ethyl)carbamoyl)oxy)methyl)-2-nitrophenoxy)tetrahydro-2H-pyran-2-carboxylic Acid]
